From ChEMBL document CHEMBL4007507 (J Med Chem, 2017)
Blank lines part the entries; values can stand above or below the compound they belong to. Activity calls are given as the source filed them. The calls are words filed in the database; no cut-off is given here.

How the values were obtained:
[1] = system: SJSA-1; experiment: cells; details: Homo sapiens
[2] = system: SJSA-1; details: Homo sapiens, 30 mg/kg
[3] = system: RS4-11; details: Homo sapiens
[4] = system: SAOS-2; experiment: cells; details: Homo sapiens
[5] = system: LNCaP; experiment: cells; details: Homo sapiens
[6] = system: PC-3; experiment: cells; details: Homo sapiens
[7] = system: HCT-116; experiment: cells; details: Homo sapiens
[8] = system: HCT-116; experiment: cells; details: Homo sapiens; remark: listed apart in the source
[9] = in vivo; details: rat, po, 25 mg/kg
[10] = in vivo; details: rat, po, 25 mg/kg; remark: listed apart in the source
[11] = in vivo; details: rat, iv, 10 mg/kg
[12] = in vivo; details: rat, iv, 10 mg/kg; remark: listed apart in the source
[13] = in vivo; details: rat, iv, 10 mg/kg; remark: listed apart in the source
[14] = system: SJSA-1; details: Homo sapiens, 50 mg/kg
[15] = system: SJSA-1; details: Homo sapiens, 100 mg/kg
[16] = system: RS4-11; experiment: cells; details: Homo sapiens
[17] = in vivo; details: rat, po, 25 mg/kg; remark: listed apart in the source
[18] = in vivo; details: rat, iv, 5 mg/kg
[19] = in vivo; details: rat, iv, 5 mg/kg; remark: listed apart in the source
[20] = in vivo; details: rat, iv, 5 mg/kg; remark: listed apart in the source
[21] = physchem; details: 1:1 CH3CN/H2O solution
[22] = physchem; details: 1:1 MeOH/H2O solution
[23] = physchem; details: cell culture media
[24] = system: SJSA-1; details: Homo sapiens

IC50 [1]: 11200 nM
SMILES: NS(=O)(=O)c1ccc(NC(=O)[C@@H]2NC3(CCCCC3)[C@@]3(C(=O)Nc4cc(Cl)ccc43)[C@H]2c2cccc(Cl)c2F)cc1

IC50 [1]: 48 nM
SMILES: CC1(C)CCC2(CC1)N[C@@H](C(=O)N[C@H]1CC[C@H](O)CC1)[C@H](c1cccc(Cl)c1F)[C@]21C(=O)Nc2cc(Cl)ccc21

IC50 [1]: 60 nM | IC50 [4]: 22700 nM | IC50 [5]: 18 nM | IC50 [6]: 22000 nM | IC50 [7]: 104 nM | IC50 [8]: 8000 nM | AUC [9]: 39100 ng·h/mL | half-life [10]: 4.6 h | AUC [11]: 38300 ng·h/mL | clearance [12]: 4.28 mL/min/kg | Vd [13]: 1.25 L/kg
SMILES: CCN1[C@@H](C(=O)NC23CCC(C(=O)O)(CC2)CC3)[C@H](c2cccc(Cl)c2F)[C@]2(C(=O)Nc3cc(Cl)ccc32)C12CCCCC2 [ALRIZOMADLIN]
TGI [2]: Active | TGI [3]: Dose-dependent effect

IC50 [1]: 120 nM
SMILES: COc1cc(C(N)=O)ccc1NC(=O)[C@@H]1NC2(CCCCC2)[C@@]2(C(=O)Nc3cc(Cl)ccc32)[C@H]1c1cccc(Cl)c1F

IC50 [1]: 220 nM
SMILES: O=C(N[C@H]1C[C@H](C(=O)O)C1)[C@@H]1NC2(CCCCC2)[C@@]2(C(=O)Nc3cc(Cl)ccc32)[C@H]1c1cccc(Cl)c1F

IC50 [1]: 190 nM
SMILES: O=C(O)c1ccc(NC(=O)[C@@H]2NC3(CCCCC3)[C@@]3(C(=O)Nc4cc(Cl)ccc43)[C@H]2c2cccc(Cl)c2F)cc1F

IC50 [1]: 5800 nM
SMILES: CS(=O)(=O)NC(=O)c1ccc(NC(=O)[C@@H]2NC3(CCCCC3)[C@@]3(C(=O)Nc4cc(Cl)ccc43)[C@H]2c2cccc(Cl)c2F)cc1

IC50 [1]: 170 nM
SMILES: O=C(NC12CCC(C(=O)O)(CC1)CC2)[C@@H]1NC2(CCC(F)(F)CC2)[C@@]2(C(=O)Nc3cc(Cl)ccc32)[C@H]1c1cccc(Cl)c1F

IC50 [1]: > 10000 nM
SMILES: CN1[C@@H](c2nc(C(=O)O)co2)[C@H](c2cccc(Cl)c2F)[C@]2(C(=O)Nc3cc(Cl)ccc32)C12CCCCC2

IC50 [1]: 3000 nM
SMILES: Cc1nnc([C@H]2[C@H](c3cccc(Cl)c3F)[C@]3(C(=O)Nc4cc(Cl)ccc43)C3(CCCCC3)N2C)s1

IC50 [1]: 89 nM | IC50 [4]: 26700 nM | IC50 [5]: 36 nM | IC50 [16]: 62 nM | IC50 [6]: 12300 nM | IC50 [7]: 137 nM | IC50 [8]: 14000 nM | half-life [10]: 4.3 h | AUC [11]: 82200 ng·h/mL | clearance [12]: 1.98 mL/min/kg | Vd [13]: 0.734 L/kg
SMILES: O=C(NC12CCC(C(=O)O)(CC1)CC2)[C@@H]1NC2(CCCCC2)[C@@]2(C(=O)Nc3cc(Cl)ccc32)[C@H]1c1cccc(Cl)c1F
TGI [14]: Active | TGI [15]: Active

Cmax [17]: 1550 ng/mL | AUC [9]: 6800 ng·h/mL | half-life [10]: 4 h | AUC [11]: 8630 ng·h/mL | clearance [12]: 19.3 mL/min/kg | Vd [13]: 2.14 L/kg
SMILES: O=C(O)c1ccc(NC(=O)[C@@H]2NC3(CCCCC3)[C@@]3(C(=O)Nc4cc(Cl)ccc43)[C@H]2c2cccc(Cl)c2F)cc1
TGI [14]: Active

IC50 [1]: 540 nM
SMILES: O=C(NC1CCS(=O)(=O)CC1)[C@@H]1NC2(CCCCC2)[C@@]2(C(=O)Nc3cc(Cl)ccc32)[C@H]1c1cccc(Cl)c1F

IC50 [1]: 1740 nM
SMILES: O=C(N[C@H]1CC[C@@H](C(=O)O)CC1)[C@@H]1NC2(CCCCC2)[C@@]2(C(=O)Nc3cc(Cl)ccc32)[C@H]1c1cccc(Cl)c1F

IC50 [1]: > 10000 nM
SMILES: CN1[C@@H](c2nc(C(=O)O)cs2)[C@H](c2cccc(Cl)c2F)[C@]2(C(=O)Nc3cc(Cl)ccc32)C12CCCCC2

IC50 [1]: 140 nM
SMILES: CS(=O)(=O)c1ccc(NC(=O)[C@@H]2NC3(CCCCC3)[C@@]3(C(=O)Nc4cc(Cl)ccc43)[C@H]2c2cccc(Cl)c2F)cc1

IC50 [1]: 240 nM
SMILES: CC(=O)N1CC(NC(=O)[C@@H]2NC3(CCCCC3)[C@@]3(C(=O)Nc4cc(Cl)ccc43)[C@H]2c2cccc(Cl)c2F)C1

half-life [10]: 1.6 h | AUC [18]: 4630 ng·h/mL | clearance [19]: 17.2 mL/min/kg | Vd [20]: 2.98 L/kg | remaining at 168 h [21]: 93 to 96% | remaining at 168 h [22]: 93 to 96% | remaining at 168 h [23]: 93 to 96%
SMILES: CC(C)(C)C[C@@H]1N[C@@H](C(=O)N[C@H]2CC[C@H](O)CC2)[C@H](c2cccc(Cl)c2F)[C@]12C(=O)Nc1cc(Cl)ccc12 [SAR-405838]
TGI [14]: Active

IC50 [1]: 12100 nM
SMILES: Cc1noc([C@H]2[C@H](c3cccc(Cl)c3F)[C@]3(C(=O)Nc4cc(Cl)ccc43)C3(CCCCC3)N2C)n1

IC50 [1]: 13 nM | Cmax [17]: 968 ng/mL | AUC [9]: 10200 ng·h/mL | half-life [10]: 4.5 h | AUC [11]: 14800 ng·h/mL | clearance [12]: 11.5 mL/min/kg | Vd [13]: 2.45 L/kg
SMILES: CC1(C)CCC2(CC1)N[C@@H](C(=O)Nc1ccc(C(=O)O)cc1)[C@H](c1cccc(Cl)c1F)[C@]21C(=O)Nc2cc(Cl)ccc21
TGI [14]: Active | TGI [24]: Dose-dependent effect

IC50 [1]: 370 nM
SMILES: CS(=O)(=O)NC(=O)C12CCC(NC(=O)[C@@H]3NC4(CCCCC4)[C@@]4(C(=O)Nc5cc(Cl)ccc54)[C@H]3c3cccc(Cl)c3F)(CC1)CC2

IC50 [1]: 760 nM
SMILES: O=C(O)c1cccc(NC(=O)[C@@H]2NC3(CCCCC3)[C@@]3(C(=O)Nc4cc(Cl)ccc43)[C@H]2c2cccc(Cl)c2F)c1

IC50 [1]: 230 nM
SMILES: O=C(O)c1ccc(NC(=O)[C@@H]2NC3(CCCCC3)[C@@]3(C(=O)Nc4cc(Cl)ccc43)[C@H]2c2cccc(Cl)c2F)c(F)c1

IC50 [1]: 120 nM
SMILES: COc1cc(NC(=O)[C@@H]2NC3(CCCCC3)[C@@]3(C(=O)Nc4cc(Cl)ccc43)[C@H]2c2cccc(Cl)c2F)ccc1C(=O)O

IC50 [1]: 5000 nM
SMILES: Cc1nnc([C@H]2[C@H](c3cccc(Cl)c3F)[C@]3(C(=O)Nc4cc(Cl)ccc43)C3(CCCCC3)N2C)o1

AUC [9]: 35200 ng·h/mL | half-life [10]: 3.9 h | AUC [11]: 28800 ng·h/mL | clearance [12]: 5.87 mL/min/kg | Vd [13]: 1.1 L/kg
SMILES: CN1[C@@H](C(=O)NC23CCC(C(=O)O)(CC2)CC3)[C@H](c2cccc(Cl)c2F)[C@]2(C(=O)Nc3cc(Cl)ccc32)C12CCCCC2
TGI [2]: Active

IC50 [1]: 61 nM
SMILES: COc1cc(C(=O)O)ccc1NC(=O)[C@@H]1NC2(CCCCC2)[C@@]2(C(=O)Nc3cc(Cl)ccc32)[C@H]1c1cccc(Cl)c1F

IC50 [1]: 6200 nM
SMILES: O=C(O)c1ccc(NC(=O)[C@@H]2NC3(CCCCC3)[C@@]3(C(=O)Nc4cc(Cl)ccc43)[C@H]2c2cccc(Cl)c2F)o1

IC50 [1]: 6000 nM
SMILES: Cc1oc([C@H]2[C@H](c3cccc(Cl)c3F)[C@]3(C(=O)Nc4cc(Cl)ccc43)C3(CCCCC3)N2C)nc1C(=O)O

IC50 [1]: 1900 nM
SMILES: O=C(NC[C@H]1CC[C@H](C(=O)O)CC1)[C@@H]1NC2(CCCCC2)[C@@]2(C(=O)Nc3cc(Cl)ccc32)[C@H]1c1cccc(Cl)c1F

IC50 [1]: 8900 nM
SMILES: CS(=O)(=O)NC(=O)[C@@H]1NC2(CCCCC2)[C@@]2(C(=O)Nc3cc(Cl)ccc32)[C@H]1c1cccc(Cl)c1F

IC50 [1]: 150 nM
SMILES: O=C(N[C@H]1CC[C@H](C(=O)O)CC1)[C@@H]1NC2(CCCCC2)[C@@]2(C(=O)Nc3cc(Cl)ccc32)[C@H]1c1cccc(Cl)c1F
TGI [14]: Active

IC50 [1]: 1400 nM
SMILES: O=C(O)CCCNC(=O)[C@@H]1NC2(CCCCC2)[C@@]2(C(=O)Nc3cc(Cl)ccc32)[C@H]1c1cccc(Cl)c1F

IC50 [1]: 760 nM
SMILES: O=C(O)Cc1ccc(NC(=O)[C@@H]2NC3(CCCCC3)[C@@]3(C(=O)Nc4cc(Cl)ccc43)[C@H]2c2cccc(Cl)c2F)cc1

IC50 [1]: 2690 nM
SMILES: CN1[C@@H](c2nc(CC(=O)O)cs2)[C@H](c2cccc(Cl)c2F)[C@]2(C(=O)Nc3cc(Cl)ccc32)C12CCCCC2

IC50 [1]: 540 nM
SMILES: O=C(NC12CC(C(=O)O)(C1)C2)[C@@H]1NC2(CCCCC2)[C@@]2(C(=O)Nc3cc(Cl)ccc32)[C@H]1c1cccc(Cl)c1F

IC50 [1]: 240 nM
SMILES: O=C(O)c1ccc(NC(=O)[C@@H]2NC3(CCCCC3)[C@@]3(C(=O)Nc4cc(Cl)ccc43)[C@H]2c2cccc(Cl)c2F)cn1
